Source: patent US20240423923A1, “EXTRACELLULAR VESICLES FROM MICROALGAE, THEIR BIODISTRIBUTION UPON ADMINISTRATION, AND USES” (AGS THERAPEUTICS SAS, priority 2022, published 2024)

Legend:
[1] = medial prefrontal cortex, anterior cingulate cortex, central nucleus of amygdala; cited from earlier work
[2] = biological target: Flagellin Sensing 2 receptor (FLS2) (Arabidopsis thaliana) (UniProt Q9FL28); test: cell-based or functional assay
Chain of UniProt Q9FL28 (Q9FL28 24-1173): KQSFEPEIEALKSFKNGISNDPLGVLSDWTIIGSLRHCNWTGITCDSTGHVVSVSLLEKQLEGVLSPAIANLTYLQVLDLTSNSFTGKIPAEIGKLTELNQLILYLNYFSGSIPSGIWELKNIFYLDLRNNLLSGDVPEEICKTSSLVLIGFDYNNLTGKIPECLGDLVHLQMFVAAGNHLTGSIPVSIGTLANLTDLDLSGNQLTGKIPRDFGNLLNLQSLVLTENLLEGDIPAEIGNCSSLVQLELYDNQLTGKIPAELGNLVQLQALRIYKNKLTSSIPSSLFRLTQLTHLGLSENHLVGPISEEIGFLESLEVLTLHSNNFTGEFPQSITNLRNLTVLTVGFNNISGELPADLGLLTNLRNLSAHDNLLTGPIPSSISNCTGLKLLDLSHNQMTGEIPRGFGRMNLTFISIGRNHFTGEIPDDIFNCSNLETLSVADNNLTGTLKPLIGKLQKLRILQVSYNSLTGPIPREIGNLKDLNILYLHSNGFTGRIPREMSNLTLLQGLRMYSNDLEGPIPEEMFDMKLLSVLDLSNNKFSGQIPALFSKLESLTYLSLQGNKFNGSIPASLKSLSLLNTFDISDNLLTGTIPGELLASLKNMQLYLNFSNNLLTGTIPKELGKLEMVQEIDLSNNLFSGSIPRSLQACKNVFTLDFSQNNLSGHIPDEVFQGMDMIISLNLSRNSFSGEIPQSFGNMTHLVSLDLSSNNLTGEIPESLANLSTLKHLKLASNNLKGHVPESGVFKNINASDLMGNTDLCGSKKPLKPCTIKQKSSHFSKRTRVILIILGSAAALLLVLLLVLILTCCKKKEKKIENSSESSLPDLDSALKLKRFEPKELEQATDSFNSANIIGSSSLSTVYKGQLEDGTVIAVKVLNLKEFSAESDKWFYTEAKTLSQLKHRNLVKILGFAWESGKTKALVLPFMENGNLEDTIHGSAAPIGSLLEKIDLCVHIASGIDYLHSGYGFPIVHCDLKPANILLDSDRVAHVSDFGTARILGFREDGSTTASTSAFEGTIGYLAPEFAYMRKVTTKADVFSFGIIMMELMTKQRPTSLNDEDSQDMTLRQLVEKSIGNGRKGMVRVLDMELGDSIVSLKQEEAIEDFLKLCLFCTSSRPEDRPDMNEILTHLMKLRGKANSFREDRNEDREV

Chain of flg22 peptide (22 amino acid synthetic peptide that mimics the conserved N-terminal region of bacterial flagellin) (P21184 30-51): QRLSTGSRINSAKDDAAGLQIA

Compound	increase in Fos-like immunoreactivity [1]	stomatal closure assay; effect of flg22-loaded EVs compared with free flg22 peptide [2] [nM]
CCN(CC)C(=O)[C@@H]1C=C2c3cccc4[nH]cc(c34)C[C@H]2N(C)C1 [LSD, Lysergic acid diethylamide]	a five- to eight-fold increase	
flg22 peptide (22 amino acid synthetic peptide that mimics the conserved N-terminal region of bacterial flagellin)		> 10
